Data: ChEMBL document CHEMBL1201862, “PubChem BioAssay data set” (2004)
Active and inactive are the calls of the source.

How the values were obtained:
[1] = biological target: Paired box protein Pax-8 (Homo sapiens, UniProt Q06710); assay: PAX8 transcriptional activity inhibition in RMG-I – RMG-I cells, luciferase, cherry-pick, dose response (AID 687027); assay type: functional, cell-based;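 note: luciferase reporter driven by Pax8 target thyroperoxidase promoter measured by SteadyGlo luminescence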
[2] = tested on: H9c2; assay: cells; assay type: functional, cell-based; details: Rattus norvegicus, H9c2, Myocardium;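 note: confirmatory concentration-response retest of ultra-high-throughput screening hits for modulation of myocardial damage; cell death induced by hydrogen peroxide oxidative stress; compound pretreatment for 60 min then peroxide exposure for 2 h; potency is for protecting the cells against peroxide damage rather than for killing them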
[3] = biological target: T1, Replicative DNA helicase DnaB (Mycobacterium tuberculosis, UniProt P9WMR3); assay: DnaB intein splicing inhibitors, dose response, biochemical, cell-free fluorescence (AID 449749); assay type: functional
T1 sequence (P9WMR3 whole entry): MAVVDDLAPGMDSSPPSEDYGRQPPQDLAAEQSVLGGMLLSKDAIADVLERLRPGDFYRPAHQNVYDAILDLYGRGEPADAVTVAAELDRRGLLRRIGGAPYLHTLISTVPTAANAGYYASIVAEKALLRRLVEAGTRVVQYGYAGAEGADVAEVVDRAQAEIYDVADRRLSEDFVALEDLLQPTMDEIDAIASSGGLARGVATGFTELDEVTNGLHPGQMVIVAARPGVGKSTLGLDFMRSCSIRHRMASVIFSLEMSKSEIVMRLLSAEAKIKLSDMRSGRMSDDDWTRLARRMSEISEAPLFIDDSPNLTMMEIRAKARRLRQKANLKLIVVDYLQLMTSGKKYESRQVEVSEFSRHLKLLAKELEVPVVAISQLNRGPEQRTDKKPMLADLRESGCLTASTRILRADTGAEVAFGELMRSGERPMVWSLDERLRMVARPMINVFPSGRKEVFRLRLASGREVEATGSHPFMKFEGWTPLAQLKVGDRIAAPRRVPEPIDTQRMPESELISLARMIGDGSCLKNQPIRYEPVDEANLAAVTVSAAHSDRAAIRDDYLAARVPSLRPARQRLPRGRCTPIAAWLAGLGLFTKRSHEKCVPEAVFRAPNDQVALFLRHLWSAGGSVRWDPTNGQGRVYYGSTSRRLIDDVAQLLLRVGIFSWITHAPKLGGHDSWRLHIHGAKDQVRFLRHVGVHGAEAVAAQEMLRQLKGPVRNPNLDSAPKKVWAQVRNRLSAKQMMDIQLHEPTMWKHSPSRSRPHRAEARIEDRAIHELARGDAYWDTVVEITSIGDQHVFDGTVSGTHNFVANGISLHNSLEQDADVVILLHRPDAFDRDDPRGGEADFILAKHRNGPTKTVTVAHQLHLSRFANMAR

[4] = biological target: T2, Protein RecA (Mycobacterium tuberculosis, UniProt P9WHJ3); assay: Fluorescence Cell-Free Homogeneous Dose Retest to Identify Inhibitors of RecA-Intein Splicing Activity. [Related pubchem assays (depositor defined):AID2097, AID2223, AID489010, AID492950]; assay type: functional
T2 sequence (P9WHJ3 whole entry): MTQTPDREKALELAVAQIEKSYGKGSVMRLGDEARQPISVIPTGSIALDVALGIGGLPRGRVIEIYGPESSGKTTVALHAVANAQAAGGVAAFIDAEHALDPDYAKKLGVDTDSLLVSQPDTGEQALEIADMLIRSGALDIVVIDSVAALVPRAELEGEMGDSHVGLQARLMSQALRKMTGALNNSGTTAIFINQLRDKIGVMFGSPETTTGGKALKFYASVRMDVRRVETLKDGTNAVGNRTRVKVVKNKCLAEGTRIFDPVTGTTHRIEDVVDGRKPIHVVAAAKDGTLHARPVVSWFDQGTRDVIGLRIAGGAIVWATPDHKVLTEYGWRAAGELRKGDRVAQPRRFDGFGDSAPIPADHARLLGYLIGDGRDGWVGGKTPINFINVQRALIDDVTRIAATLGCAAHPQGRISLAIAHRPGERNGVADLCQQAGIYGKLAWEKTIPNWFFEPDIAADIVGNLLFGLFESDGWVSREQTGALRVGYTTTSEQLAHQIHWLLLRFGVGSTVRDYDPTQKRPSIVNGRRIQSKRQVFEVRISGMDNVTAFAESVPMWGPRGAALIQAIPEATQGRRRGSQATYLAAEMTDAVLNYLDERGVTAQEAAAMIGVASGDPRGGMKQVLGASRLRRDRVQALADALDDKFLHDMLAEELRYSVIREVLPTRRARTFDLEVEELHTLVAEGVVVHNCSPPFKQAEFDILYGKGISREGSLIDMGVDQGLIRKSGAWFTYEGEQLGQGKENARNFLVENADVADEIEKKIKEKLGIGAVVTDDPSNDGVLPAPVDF

[5] = biological target: FAD-linked sulfhydryl oxidase ALR (Homo sapiens, UniProt P55789); assay: ALR-catalysed DTT oxidation blockers – biochemical, H2O2 detection, luminescence, cherry-pick, dose response (AID 493248)
[6] = viability of PTEN-deleted HCT116 cells – cell-based, HCT116 PTEN knockout, dose response (AID 1047); assay type: functional;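 note: HCT116 colon tumor cells with PTEN knocked out; cells exposed to compound for 60 hours before readout; potency for loss of cell viability measured by luminescence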
[7] = viability of HCT116 lacking mutant beta-catenin – cell-based, human colon tumor, dose response (AID 1045); assay type: functional;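 note: HCT116 colon tumor cells with beta catenin knocked out; cells exposed to compound for 60 hours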
[8] = fluconazole-exposed Candida albicans growth modulators – fluorescence, retest, confirmation (AID 2467); assay type: functional, cell-based
[9] = viability of uninfected HEp-2 cells – cell-based, HTS, cytotoxicity control for RSV inhibitor project, dose response (AID 2410); assay type: functional; details: human respiratory syncytial virus
[10] = NIH-3T3 fibroblast cytotoxicity, dose response, cytotoxicity control, cell-based, fluorescence, Alamar Blue, secondary assay (AID 2327); assay type: functional;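 note: NIH-3T3 mouse fibroblasts cultured with fluconazole at 8 µg/mL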
[11] = tested on: Vero; assay: cells; assay type: functional; details: Chlorocebus sabaeus
[12] = biological target: T3, Microphthalmia-associated transcription factor (Homo sapiens, UniProt O75030); assay: reducers of TRPM1 reporter luminescence, concentration series – cell-based, SK-MEL-5, cherry-picked, set 3, MITF inhibitor project, dose response (AID 493073); assay type: functional;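 note: SK-MEL-5 melanoma cells with luciferase driven by the MITF target TRPM1 promoter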
T3 sequence (O75030 whole entry): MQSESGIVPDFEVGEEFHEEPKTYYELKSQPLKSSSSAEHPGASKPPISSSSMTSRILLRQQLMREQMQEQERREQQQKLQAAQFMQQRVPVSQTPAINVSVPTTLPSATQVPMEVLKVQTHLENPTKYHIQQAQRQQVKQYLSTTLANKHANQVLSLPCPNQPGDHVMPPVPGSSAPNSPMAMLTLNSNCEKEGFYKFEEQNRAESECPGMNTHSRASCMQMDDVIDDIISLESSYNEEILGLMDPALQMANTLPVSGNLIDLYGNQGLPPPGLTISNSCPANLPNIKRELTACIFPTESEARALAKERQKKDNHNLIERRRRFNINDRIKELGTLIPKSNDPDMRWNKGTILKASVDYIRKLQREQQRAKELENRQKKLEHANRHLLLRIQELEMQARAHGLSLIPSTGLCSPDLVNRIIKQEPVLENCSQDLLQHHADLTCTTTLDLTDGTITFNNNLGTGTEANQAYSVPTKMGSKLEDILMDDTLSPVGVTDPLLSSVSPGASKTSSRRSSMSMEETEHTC

[13] = biological target: T4, Calpain-2 catalytic subunit (Sus scrofa, UniProt P43367); assay: m-calpain protease blockers, concentration series – biochemical, fluorogenic peptide substrate, dose response (AID 1420); assay type: functional
T4 sequence (P43367 whole entry): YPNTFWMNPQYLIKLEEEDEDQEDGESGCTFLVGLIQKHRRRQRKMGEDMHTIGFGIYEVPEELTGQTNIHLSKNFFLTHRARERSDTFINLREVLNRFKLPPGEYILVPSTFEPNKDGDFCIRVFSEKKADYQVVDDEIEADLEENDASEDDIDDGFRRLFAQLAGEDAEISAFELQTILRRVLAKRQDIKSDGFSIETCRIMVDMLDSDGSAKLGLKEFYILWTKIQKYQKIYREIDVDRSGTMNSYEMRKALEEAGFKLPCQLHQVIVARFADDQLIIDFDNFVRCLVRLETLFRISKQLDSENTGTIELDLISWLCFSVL

[14] = off-target signal loss in HeLa-CEM21 co-culture – HeLa F-luc CTL cells, cherry-picked, counter-screen for HIV-1 Env fusion inhibitor project, dose response (AID 652040); assay type: functional, cell-based;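 note: potency for signal decrease marking cytotoxic or nonspecific inhibition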
[15] = blockers of HIV-1 envelope-mediated cell-cell fusion – cherry-pick, dose response (AID 652057); assay type: functional, cell-based
[16] = biological target: Induced myeloid leukemia cell differentiation protein Mcl-1 (Homo sapiens, UniProt Q07820); assay type: functional
Sequence of Induced myeloid leukemia cell differentiation protein Mcl-1 (Q07820 whole entry): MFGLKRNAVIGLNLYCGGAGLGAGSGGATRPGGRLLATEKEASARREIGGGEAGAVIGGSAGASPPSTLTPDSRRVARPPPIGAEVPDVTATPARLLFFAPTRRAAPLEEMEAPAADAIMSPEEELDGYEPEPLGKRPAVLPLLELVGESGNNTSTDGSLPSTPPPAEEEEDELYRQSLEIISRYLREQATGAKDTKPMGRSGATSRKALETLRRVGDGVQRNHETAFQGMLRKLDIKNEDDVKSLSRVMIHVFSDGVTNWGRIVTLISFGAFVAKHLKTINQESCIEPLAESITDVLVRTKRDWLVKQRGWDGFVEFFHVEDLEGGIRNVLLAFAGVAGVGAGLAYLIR

Sequence of FAD-linked sulfhydryl oxidase ALR (P55789 whole entry): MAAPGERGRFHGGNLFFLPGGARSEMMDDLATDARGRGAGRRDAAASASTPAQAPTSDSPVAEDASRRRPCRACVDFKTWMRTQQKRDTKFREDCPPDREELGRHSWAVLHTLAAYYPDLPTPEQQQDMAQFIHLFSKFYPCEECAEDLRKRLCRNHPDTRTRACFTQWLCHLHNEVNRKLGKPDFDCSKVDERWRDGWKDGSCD
Sequence of Paired box protein Pax-8 (Q06710 whole entry): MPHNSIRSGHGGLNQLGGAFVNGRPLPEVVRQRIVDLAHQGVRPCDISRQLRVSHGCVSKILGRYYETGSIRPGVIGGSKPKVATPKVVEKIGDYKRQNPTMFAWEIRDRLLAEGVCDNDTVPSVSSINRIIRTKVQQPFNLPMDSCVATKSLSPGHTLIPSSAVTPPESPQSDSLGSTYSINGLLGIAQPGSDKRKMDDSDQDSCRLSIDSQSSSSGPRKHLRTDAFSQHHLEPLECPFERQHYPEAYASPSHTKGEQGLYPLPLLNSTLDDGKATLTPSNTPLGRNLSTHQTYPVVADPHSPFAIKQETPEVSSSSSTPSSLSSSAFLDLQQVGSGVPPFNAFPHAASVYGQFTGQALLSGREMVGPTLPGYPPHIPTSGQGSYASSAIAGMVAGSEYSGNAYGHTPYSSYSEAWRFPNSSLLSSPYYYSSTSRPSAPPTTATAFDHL

For O=C(C[C@H]1CC[C@H]2[C@@H](COC[C@@H](O)CN2Cc2ccc(Oc3ccccc3)cc2)O1)N1CCCCC1, the AC50 [1] was 15 µM (active).
With O=C(NCCc1ccc(F)cc1)C(=O)Nc1cc2c3c(c1)CC(=O)N3CCC2 the IC50 [2] was > 79 µM (inactive).
For O=C(CCl)N1CCN(S(=O)(=O)c2ccc3ccccc3c2)CC1, the AC50 [3] was 12.7 µM (active) and the EC50 [4] was 1.58 µM (active).
For Cc1ccc(-c2nnc(S)n2/N=C/c2c(C)nn(-c3ccccc3)c2O)cc1, the AC50 [5] was 13.5 µM (active).
With Cc1ccc2nc(N(CCCN(C)C)C(=O)CCc3ccccc3)sc2c1 the EC50 [6] was 16.6 µM (active) and the EC50 [7] was 16.6 µM (active).
In the case of Cc1ccc(OCCN2CCN(CC(O)Cn3c4ccccc4c4ccccc43)CC2)cc1 (stereo not given), the EC50 [6] is reported as 13.6 µM (active) and the EC50 [7] is reported as 10.9 µM (active).
For Cn1c(/C=C/c2cccc([N+](=O)[O-])c2)c([N+](=O)[O-])c(=O)n(C)c1=O, the EC50 [8] was 7.56 µM (active), the CC50 [9] was 36 µM (active) and the EC50 [10] was 58.4 µM (active). For the same compound, the CC50 [11] was 22.7 µM (active) and the AC50 [12] was 27.8 µM (active).
With CC(NC(=O)C1CC1)C(c1cccs1)N1CCN(c2ccccc2)CC1 (stereo not given) the AC50 [5] was 0.362 µM (active).
For O=C(Cn1[nH]c(=O)c2ccccc2c1=O)NC1CCCCCC1, the IC50 [2] was 25.3 µM (active).
With CCOc1cc(/C=N\NC(=O)c2ccc(NC(=O)C(C)(C)C)cc2)ccc1OC(=O)c1cccc(C)c1 the IC50 [2] was > 79 µM (inactive).
For CCOc1ccc(-n2c(SCC(=O)Nc3cc(C)on3)nc3c4ccccc4nc-3c2O)cc1, the EC50 [6] was 28.4 µM (active) and the EC50 [7] was 28.6 µM (active).
In the case of COc1cc(C(=O)NNC(=O)c2ccc3ccccc3n2)cc(OC)c1OC, the IC50 [2] is reported as 8.15 µM (active).
In the case of CCN(CC(=O)Nc1c(C(=O)OC)[nH]c2ccc(Cl)cc12)c1ccc2c(c1)OCO2, the EC50 [6] is reported as 19.4 µM (active) and the EC50 [7] is reported as 27.7 µM (active).
In the case of COc1ccc2nc(SCC(=O)Nc3ccc4sc(C)nc4c3)c(C#N)cc2c1, the EC50 [6] is reported as 21.3 µM (active) and the EC50 [7] is reported as 20 µM (active).
For O=C(NCc1ccco1)/C(=C/c1cccc(C(F)(F)F)c1)c1nc2ccccc2[nH]1, the AC50 [3] was > 380 µM (inactive), the EC50 [4] was 54.4 µM (active) and the CC50 [11] was 13.7 µM (active).
In the case of COCCn1/c(=N/C(=O)c2sc3ccccc3c2Cl)sc2cc(S(N)(=O)=O)ccc21, the EC50 [6] is reported as 23.2 µM (active) and the EC50 [7] is reported as 22.5 µM (active).
For CC(OC(=O)Cc1nnc(O)c2ccccc12)C(=O)Nc1cc(Cl)cc(Cl)c1 (stereo not given), the IC50 [2] was 20.8 µM (active).
With Cc1ccc(CNC(=O)c2oc3ccc(S(=O)(=O)N4CCOCC4)cc3c2C)cc1 the IC50 [13] was 23.5 µM (not active) and the IC50 [2] was > 79 µM (inactive).
For CC(C)CC(=O)NC(=S)NNC(=O)c1ccc([N+](=O)[O-])cc1, the CC50 [11] was 24.6 µM (active).
In the case of Oc1nnc(CNc2ccc(C(F)(F)F)cc2)c2ccccc12, the IC50 [2] is reported as 27.5 µM (active).
In the case of COc1ccnc(Oc2ccc(F)cc2)c1C(=O)N=CNOCc1ccc(Cl)cc1Cl, the IC50 [2] is reported as > 79 µM (inactive).
For O=C(NCC1(c2ccccc2)CCCC1)C1(c2ccccc2)CCCC1, the AC50 [3] was 10 µM (active) and the EC50 [4] was 53.3 µM (active).
In the case of N=c1sccn1CC(=O)Nc1ccc(SC(F)F)cc1, the AC50 [5] is reported as 1.68 µM (active).
With CC1CCCCC12NC(=O)N(CC(=O)Nc1ccc(S(=O)(=O)Nc3ncccn3)cc1)C2=O (stereo not given) the AC50 [5] was 6.47 µM (active).
For CC(=O)Nc1ccc(C(=O)N/N=C/c2ccccc2OC(=O)c2ccc(Cl)cc2)cc1, the IC50 [2] was 8.26 µM (active).
In the case of COC(=O)Nc1ccc(S(=O)(=O)Nc2ccc(O)cc2)cc1, the AC50 [5] is reported as 1.38 µM (active).
With CC(NC(=O)c1ccccc1NC(=O)CN1CCc2ccccc2C1)c1ccccc1 (stereo not given) the AC50 [14] was 49.2 µM (active) and the AC50 [15] was 9.12 µM (active).
For Cc1c(O)cccc1C(=O)N[C@@H](CSc1ccccc1)[C@H](O)CN1C[C@H]2CCCC[C@H]2C[C@H]1C(=O)NC(C)(C)C, the CC50 [11] was > 25 µM (active).
With CC[C@@H](C)[C@H](NC(=O)Cc1c(C)c2cc3c(C)coc3c(C)c2oc1=O)C(=O)O the AC50 [5] was 2.39 µM (active).
In the case of COc1ccc(NC(=O)C(Sc2nnc(-c3ccncc3)n2-c2ccccc2C)c2ccccc2)cc1Cl (stereo not given), the AC50 [1] is reported as 15.5 µM (active).
For CCOC(=O)c1cn(-c2nc(-c3ccc(Cl)c(Cl)c3)cs2)c2c(F)c(N3CCOCC3)c(F)cc2c1=O, the EC50 [6] was 8.96 µM (active), the CC50 [9] was 28.4 µM (active) and the EC50 [7] was 18.6 µM (active).
For CCN(C(=O)c1ccc2c(Cl)c3c(nc2c1)CCC3)c1ccc(C)c(C)c1, the AC50 [3] was 14.1 µM (active) and the EC50 [4] was 2.59 µM (active).
For COc1ccc(C(=O)NNS(=O)(=O)c2ccc(OC)cc2)cc1, the AC50 [5] was 12.7 µM (active).
For Cc1ccc(NC(=O)CN2C(=O)/C(=C3\SC(=S)N(C4CCS(=O)(=O)C4)C3=O)c3ccccc32)cc1 (stereo not given), the IC50 [13] was 9.72 µM (not active) and the IC50 [16] was 24.1 µM (active).
For COc1ccc(NC(=O)Nc2ccc3c(c2)C(=O)N([C@@H](C)CO)C[C@@H](C)[C@@H](CN(C)Cc2ccc(C(F)(F)F)cc2)OCCCC[C@@H](C)O3)cc1, the AC50 [1] was 8.18 µM (active).
